Assay results published in patent publication US20080226596A1, “Therapeutic compositions and methods useful in treating hepatitis” (priority 2006, published 2008).

Columns and labels:
NB4 cells [1] = assay: NB4 proliferation, MTT assay; assay type: cell-based, human; conditions: 12.5-400 μg/ml
Experimental: The NB4 cell line (Lanotte et al., Blood 77, 1080 (1991)) was a gift from Dr. Dan Lindner of the Cleveland Clinic Foundation. […] and U937 cell lines were purchased from American Type Culture Collection (Rockville, Md.). These human […] cell lines were maintained in RPMI 1640 medium supplemented with 10% fetal calf serum (FCS). For cell proliferation assays, cells were cultured at 37° C. in 10% FCS medium containing various amounts of sodium stibogluconate for 6 days. The cell numbers in the cultures were determined by an MTT assay as described previously in Mosmann, J. Immunol. Methods 65, 55 (1983).

U266 cells = assay: U266 multiple myeloma cell growth, MTT assay; assay type: cell-based, human; conditions: day six cultures
Experimental: (§1) For cell proliferation assays, cells were grown in 10% FCS culture medium containing various amounts of IFNs and/or sodium stibogluconate in 96 well plates and cultured at 37° C. for 3 or 6 days as indicated. The numbers of viable cells in proliferation assays were determined by MTT assays as described in Phatak et al., J. Immunol. 167, 3391 (2001).

A549 cells = assay: A549 lung cancer cell growth, MTT assay; assay type: cell-based, human; conditions: 100 μg/ml, day 6
Experimental: NIH3T3 (Yi, et al., Blood 85, 87 (1995)), WM9 (Forsberg, et al., Proc. Nat. Acad Sci. USA 90, 393 (1993)), DU145 (Mickey, et al., Cancer Res. 37, 4049 (1977)), LoVo (Drewinko, et al., Cancer Res. 36, 467 (1976)), HEY (Buick, et al., Cancer Res. 45, 3668 (1985)), U251 (Yoshida, et al., Cancer 50, 410 (1982)), A549 (Giard, et al., J. Natl. Cancer Inst. 51, 1417 (1973)) and SK-N-SH (Helson, et al., Cancer Res. 35, 2594 (1975)) cell lines have been described and were cultured in RPMI 1640 supplemented with 10% fetal calf serum (FCS). For measurement of sodium stibogluconate effects on cell growth in vitro, cells were cultured in the absence (−) or presence (+) of various amounts of sodium stibogluconate for 6 days with viable cells quantified by MTT assays (Mosmann, J. Immunol. Methods 65, 55 (1983)). Percentages of growth inhibition by sodium stibogluconate were calculated (.+−.x

NB4 cells [2] = assay: NB4 Annexin V/propidium iodide assay; assay type: cell-based, human; conditions: 250 μg/ml, 6 days
Experimental: Annexin V staining of exposed membrane phospholipid phosphatidylserine (PS) was done using the Annexin V assay kit (Pharmingen, San Diego, Calif.). […] Cells were then washed in PBS twice and stained in binding buffer (10 mM Hepes, pH 7.4; 140 mM NaCl; 2.5 mM CaCl2) containing Annexin V-FITC and propidium iodide for 15 min. The reaction was stopped by adding 10 volumes of binding buffer and analyzed by FACS (Becton Dickinson Facsvantage).

human peripheral blood = assay: ELISPOT of cytokine-positive cells in human peripheral blood treated in vitro; assay type: cell-based; conditions: comparable conditions
Renca cells = assay: Renca cell growth in culture, MTT assay; assay type: cell-based, murine; conditions: SSG 6.25-200 μg/ml, 6 days; listed as SSG
Text: Renca (Murphy, G. P., and W. J. Hrushesky. 1973. A murine renal cell carcinoma. J Natl Cancer Inst 50:1013), Jurkat (Gillis, S., and J. Watson. 1980. Biochemical and biological characterization of lymphocyte regulatory molecules. V. Identification of an interleukin 2-producing human leukemia T cell line. J Exp Med 152:1709) and WM9 (Forsberg, K., I. Valyi-Nagy, C. H. Heldin, M. Herlyn, and B. Westermark. 1993. Platelet-derived growth factor (PDGF) in oncogenesis: development of a vascular connective tissue stroma in xenotransplanted human melanoma producing PDGF-BB. Proc Natl Acad Sci USA 90:393) cell lines were obtained from a colleague at the Cleveland Clinic Foundation (CCF) and cultured in RPMI 1640 medium supplemented with 10% fetal calf serum (FCS). […] SSG has been described previously (Yi, T., M. K. Pathak, D. J. Lindner, M. E. Ketterer, C. Farver, and E. C. Borden. 2002. Anticancer activity of sodium stibogluconate in synergy with IFNs. J Immunol 169:5978). For cell growth inhibition assays, cells were cultured in absence or presence of various amounts of SSG for 6 days with viable cells quantified by MTT assays as described elsewhere (Pathak, M. K., and T. Yi. 2001. Sodium stibogluconate is a potent inhibitor of protein tyrosine phosphatases and augments cytokine responses in hemopoietic cell lines. J Immunol 167:3391).

C42 cells = assay: C42 prostate cancer cell growth; assay type: cell-based, human
Experimental: as §1

O.O.O.O.O.O.O.O.O.O=C([O-])[C@@H]1[O][Sb]2([O-])([O][Sb]34([OH])[O][C@H]([C@H](O)CO)[C@H]([O]3)[C@H](C(=O)[O-])[O]4)[O][C@H]([C@H](O)CO)[C@@H]1[O]2.[Na+].[Na+].[Na+] [sodium stibogluconate]
proliferation of NB4 cells (NB4 cells [1]): markedly inhibited | growth inhibition of U266 cells (U266 cells): substantial growth inhibition activity | killing of A549 cells (A549 cells): near-complete cell killing | Annexin V staining of NB4 cells (NB4 cells [2]): stained positive by Annexin V | induction of IL-5+ cells (human peripheral blood): not induced | Renca cell growth in culture (Renca cells): failed to inhibit Renca cell proliferation in culture | effect on C42 cells (C42 cells): highly resistant
